Assay results as given in the NIST ThermoML archive (doi:10.1016/j.fluid.2009.08.017).
Numbers after ± are expanded uncertainties.

Experiment: activity coefficient (dimensionless); of the first substance listed, at infinite dilution; xn = mol fraction of the nth substance listed
Details: 101 kPa, Liquid, Chromatography, x1 = 0

Structure (SMILES)	activity coefficient (298.15 K)	activity coefficient (308.15 K)	activity coefficient (318.15 K)	activity coefficient (328.15 K)	activity coefficient (338.15 K)	activity coefficient (348.15 K)	activity coefficient (358.15 K)	activity coefficient (368.15 K)
C1CCCCCC1 [cycloheptane] + CCCCCCOCn1cc[n+](C)c1.O=S(=O)([N-]S(=O)(=O)C(F)(F)F)C(F)(F)F	6.51 ± 0.44	6.15 ± 0.42	5.8 ± 0.4	5.49 ± 0.37	5.23 ± 0.36	5.02 ± 0.34	4.79 ± 0.33	4.6 ± 0.31
C1CCCCCC1 [cycloheptane] + CCCCCCOCn1cc[n+](COCCCCCC)c1.O=S(=O)([N-]S(=O)(=O)C(F)(F)F)C(F)(F)F	2.71 ± 0.18	2.6 ± 0.18	2.5 ± 0.17	2.41 ± 0.16	2.33 ± 0.16	2.25 ± 0.15	2.19 ± 0.15	2.12 ± 0.14
C1CCCCC1 [cyclohexane] + CCCCCCOCn1cc[n+](C)c1.O=S(=O)([N-]S(=O)(=O)C(F)(F)F)C(F)(F)F	5.44 ± 0.37	5.14 ± 0.35	4.87 ± 0.33	4.63 ± 0.32	4.43 ± 0.3	4.24 ± 0.29	4.07 ± 0.28	3.91 ± 0.27
C1CCCCC1 [cyclohexane] + CCCCCCOCn1cc[n+](COCCCCCC)c1.O=S(=O)([N-]S(=O)(=O)C(F)(F)F)C(F)(F)F	2.32 ± 0.16	2.22 ± 0.15	2.15 ± 0.15	2.08 ± 0.14	2.01 ± 0.14	1.94 ± 0.13	1.89 ± 0.13	1.84 ± 0.12
C1CCCCCCC1 [cyclooctane] + CCCCCCOCn1cc[n+](C)c1.O=S(=O)([N-]S(=O)(=O)C(F)(F)F)C(F)(F)F	8.12 ± 0.55	7.57 ± 0.52	7.11 ± 0.48	6.74 ± 0.46	6.35 ± 0.43	6.06 ± 0.41	5.75 ± 0.39	5.48 ± 0.37
C1CCCCCCC1 [cyclooctane] + CCCCCCOCn1cc[n+](COCCCCCC)c1.O=S(=O)([N-]S(=O)(=O)C(F)(F)F)C(F)(F)F	3.2 ± 0.22	3.06 ± 0.21	2.94 ± 0.2	2.82 ± 0.19	2.72 ± 0.19	2.63 ± 0.18	2.54 ± 0.17	2.47 ± 0.17
C1CCCC1 [cyclopentane] + CCCCCCOCn1cc[n+](C)c1.O=S(=O)([N-]S(=O)(=O)C(F)(F)F)C(F)(F)F	4.19 ± 0.29	3.99 ± 0.27	3.82 ± 0.26	3.66 ± 0.25	3.51 ± 0.24	3.38 ± 0.23	3.27 ± 0.22	3.16 ± 0.22
C1CCCC1 [cyclopentane] + CCCCCCOCn1cc[n+](COCCCCCC)c1.O=S(=O)([N-]S(=O)(=O)C(F)(F)F)C(F)(F)F	1.84 ± 0.12	1.78 ± 0.12	1.74 ± 0.12	1.69 ± 0.11	1.65 ± 0.11	1.61 ± 0.11	1.57 ± 0.1	1.54 ± 0.1
CCCCCCCCCC [decane] + CCCCCCOCn1cc[n+](C)c1.O=S(=O)([N-]S(=O)(=O)C(F)(F)F)C(F)(F)F	23.5 ± 1.6	21.7 ± 1.5	20.2 ± 1.4	18.9 ± 1.3	17.7 ± 1.2	16.7 ± 1.1	15.8 ± 1.1	14.9 ± 1
CCCCCCCCCC [decane] + CCCCCCOCn1cc[n+](COCCCCCC)c1.O=S(=O)([N-]S(=O)(=O)C(F)(F)F)C(F)(F)F	7.38 ± 0.5	7 ± 0.48	6.66 ± 0.45	6.38 ± 0.43	6.11 ± 0.42	5.87 ± 0.4	5.65 ± 0.39	5.46 ± 0.37
CCOCC [diethyl ether] + CCCCCCOCn1cc[n+](C)c1.O=S(=O)([N-]S(=O)(=O)C(F)(F)F)C(F)(F)F	1.35 ± 0.09	1.37 ± 0.09	1.38 ± 0.09	1.4 ± 0.09	1.41 ± 0.09	1.43 ± 0.09	1.44 ± 0.09	1.45 ± 0.1
CCOCC [diethyl ether] + CCCCCCOCn1cc[n+](COCCCCCC)c1.O=S(=O)([N-]S(=O)(=O)C(F)(F)F)C(F)(F)F	0.811 ± 0.052	0.826 ± 0.053	0.839 ± 0.054	0.854 ± 0.055	0.867 ± 0.055	0.879 ± 0.056	0.89 ± 0.057	0.904 ± 0.057
CCCOCCC [dipropyl ether] + CCCCCCOCn1cc[n+](C)c1.O=S(=O)([N-]S(=O)(=O)C(F)(F)F)C(F)(F)F	2.92 ± 0.2	2.89 ± 0.2	2.87 ± 0.2	2.85 ± 0.19	2.83 ± 0.19	2.81 ± 0.19	2.79 ± 0.19	2.77 ± 0.19
CCCOCCC [dipropyl ether] + CCCCCCOCn1cc[n+](COCCCCCC)c1.O=S(=O)([N-]S(=O)(=O)C(F)(F)F)C(F)(F)F	1.49 ± 0.098	1.49 ± 0.098	1.49 ± 0.098	1.5 ± 0.098	1.5 ± 0.099	1.5 ± 0.099	1.5 ± 0.099	1.5 ± 0.099
CCO [ethanol] + CCCCCCOCn1cc[n+](C)c1.O=S(=O)([N-]S(=O)(=O)C(F)(F)F)C(F)(F)F	1.59 ± 0.11	1.44 ± 0.09	1.31 ± 0.09	1.2 ± 0.08	1.1 ± 0.07	1.03 ± 0.06	0.952 ± 0.06	0.891 ± 0.057
CCO [ethanol] + CCCCCCOCn1cc[n+](COCCCCCC)c1.O=S(=O)([N-]S(=O)(=O)C(F)(F)F)C(F)(F)F	1.25 ± 0.08	1.14 ± 0.07	1.04 ± 0.065	0.958 ± 0.06	0.886 ± 0.056	0.824 ± 0.053	0.767 ± 0.05	0.719 ± 0.048
CCc1ccccc1 [ethylbenzene] + CCCCCCOCn1cc[n+](C)c1.O=S(=O)([N-]S(=O)(=O)C(F)(F)F)C(F)(F)F	–	1.49 ± 0.098	1.49 ± 0.098	1.49 ± 0.098	1.5 ± 0.098	1.5 ± 0.099	1.5 ± 0.099	1.5 ± 0.099
CCc1ccccc1 [ethylbenzene] + CCCCCCOCn1cc[n+](COCCCCCC)c1.O=S(=O)([N-]S(=O)(=O)C(F)(F)F)C(F)(F)F	0.967 ± 0.061	0.966 ± 0.061	0.965 ± 0.061	0.964 ± 0.061	0.963 ± 0.061	0.963 ± 0.061	0.962 ± 0.06	–
CCCCCCC [heptane] + CCCCCCOCn1cc[n+](C)c1.O=S(=O)([N-]S(=O)(=O)C(F)(F)F)C(F)(F)F	10.6 ± 0.7	10 ± 0.7	9.51 ± 0.65	9.07 ± 0.62	8.65 ± 0.59	8.28 ± 0.56	7.95 ± 0.54	7.66 ± 0.52
CCCCCCC [heptane] + CCCCCCOCn1cc[n+](COCCCCCC)c1.O=S(=O)([N-]S(=O)(=O)C(F)(F)F)C(F)(F)F	3.94 ± 0.27	3.81 ± 0.26	3.68 ± 0.25	3.57 ± 0.24	3.46 ± 0.24	3.36 ± 0.23	3.27 ± 0.22	3.19 ± 0.22
C=CCCCC [hex-1-ene] + CCCCCCOCn1cc[n+](C)c1.O=S(=O)([N-]S(=O)(=O)C(F)(F)F)C(F)(F)F	4.89 ± 0.33	4.72 ± 0.32	4.59 ± 0.31	4.46 ± 0.3	4.33 ± 0.29	4.23 ± 0.29	4.12 ± 0.28	4.03 ± 0.27
C=CCCCC [hex-1-ene] + CCCCCCOCn1cc[n+](COCCCCCC)c1.O=S(=O)([N-]S(=O)(=O)C(F)(F)F)C(F)(F)F	2.25 ± 0.15	2.2 ± 0.15	2.15 ± 0.15	2.11 ± 0.14	2.07 ± 0.14	2.04 ± 0.14	2.01 ± 0.14	1.97 ± 0.13
CCCCCC [hexane] + CCCCCCOCn1cc[n+](C)c1.O=S(=O)([N-]S(=O)(=O)C(F)(F)F)C(F)(F)F	8.36 ± 0.57	7.96 ± 0.54	7.59 ± 0.52	7.27 ± 0.5	6.98 ± 0.48	6.71 ± 0.46	6.46 ± 0.44	6.24 ± 0.43
CCCCCC [hexane] + CCCCCCOCn1cc[n+](COCCCCCC)c1.O=S(=O)([N-]S(=O)(=O)C(F)(F)F)C(F)(F)F	3.22 ± 0.22	3.13 ± 0.21	3.04 ± 0.21	2.97 ± 0.2	2.9 ± 0.2	2.83 ± 0.19	2.77 ± 0.19	2.72 ± 0.19
CO [methanol] + CCCCCCOCn1cc[n+](C)c1.O=S(=O)([N-]S(=O)(=O)C(F)(F)F)C(F)(F)F	1.36 ± 0.09	1.24 ± 0.08	1.13 ± 0.07	1.04 ± 0.07	0.959 ± 0.06	0.894 ± 0.057	0.832 ± 0.054	0.775 ± 0.051
CO [methanol] + CCCCCCOCn1cc[n+](COCCCCCC)c1.O=S(=O)([N-]S(=O)(=O)C(F)(F)F)C(F)(F)F	1.17 ± 0.07	1.06 ± 0.067	0.978 ± 0.061	0.9 ± 0.057	0.834 ± 0.054	0.776 ± 0.051	0.725 ± 0.048	0.681 ± 0.046
